Measured values taken from PMC11352859, “Functionalized Congeners of 2H-Chromene P2Y6 Receptor Antagonists” (Cells, 2024).
Values joined by “and” are separate entries in the source; they are usually repeats but may differ in a detail not shown here. Equal values may be shown once. Read-outs that look alike come from different tables or passages of the source.

Columns and labels:
hP2Y6R = target: T1, hP2Y6R (Homo sapiens, UniProt Q15077); assay: UDP (100 nM)-induced Ca2+ mobilization in hP2Y6R stably transfected 1321N1 astrocytoma cells; format: cell-based
T1 construct: expressed in transfected cells
T1 sequence (Q15077 whole entry): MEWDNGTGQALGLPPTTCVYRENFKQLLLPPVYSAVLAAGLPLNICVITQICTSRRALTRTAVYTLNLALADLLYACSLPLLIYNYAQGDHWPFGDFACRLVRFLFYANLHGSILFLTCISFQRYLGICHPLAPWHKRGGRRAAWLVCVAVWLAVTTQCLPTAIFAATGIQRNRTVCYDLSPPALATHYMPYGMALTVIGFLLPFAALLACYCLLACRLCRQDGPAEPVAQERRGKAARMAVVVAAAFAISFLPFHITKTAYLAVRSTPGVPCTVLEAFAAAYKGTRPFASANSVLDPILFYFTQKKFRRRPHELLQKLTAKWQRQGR
Description: To screen for P2Y6R antagonist activity, PLC-mediated calcium mobilization assays were carried out using the recombinant human P2Y6R stably expressed in 1321N1 astrocytoma cells (hP2Y6R-1321N1) according to the previously published method. Briefly, the hP2Y6R-1321N1 cells were seeded on 96-well black plates and incubated overnight. The antagonists were pretreated along with the FLIPR dye (Calcium 6 assay kit, Molecular Devices, San Jose, CA, USA) containing 5 mM probenecid for 45 min, prior to agonist addition followed by an immediate intracellular Ca^2+ measurement. […] Here, probenecid was used as an organic anion transporter inhibitor to prevent the efflux of the dye into the extracellular environment. During incubation, the membrane permeable dye enters the cytoplasm and cleaves the acetoxymethyl protection to enable Ca^2+ binding. When the P2Y6R was activated by UDP, the increased calcium concentration was directly measured by intracellular changes in the fluorescence intensity with a Fluorescent Imaging Plate Reader (FLIPR^TETRA, Molecular Devices, San Jose, CA, USA).

hP2Y14R = target: T2, hP2Y14R (Homo sapiens, UniProt Q15391); assay: whole-cell binding of fluorescent antagonist MRS4174 in CHO-hP2Y14R cells (flow cytometry)
T2 construct: expressed in transfected cells
T2 sequence (Q15391 1-338): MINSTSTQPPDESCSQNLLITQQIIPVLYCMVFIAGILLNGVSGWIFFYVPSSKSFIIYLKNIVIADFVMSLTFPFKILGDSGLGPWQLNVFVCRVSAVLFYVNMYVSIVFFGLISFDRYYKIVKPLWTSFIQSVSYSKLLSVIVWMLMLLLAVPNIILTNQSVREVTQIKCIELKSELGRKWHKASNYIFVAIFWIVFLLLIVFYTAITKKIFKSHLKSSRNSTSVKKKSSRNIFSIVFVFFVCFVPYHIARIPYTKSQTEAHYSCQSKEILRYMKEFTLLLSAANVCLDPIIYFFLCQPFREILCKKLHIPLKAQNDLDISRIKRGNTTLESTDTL

[1] = test system: 45 target sites (receptors, channels, and transporters); assay: PDSP off-target binding screen at 45 target sites; parameters: species or system human; settings: PDSP binding assays
From the text: (§1) Table S2. Off-target screening (to replace table later). We thank Dr. Bryan L. Roth (Univ. North Carolina at Chapel Hill) and National Institute of Mental Health's Psychoactive Drug Screening Program (Contract # HHSN-271-2008-00025-C) for screening data. Reference: Besnard et al.
(§2) Procedures: https://pdsp.unc.edu/pdspweb/content/UNC-CH%20Protocol%20Book.pdf […]
(§3) nucleosides were found at the following sites (human unless noted): 5HT1A, 5HT1B, 5HT1D, […]
(§4) β3, BZP rat brain site, D1, D2, D3, D4, D5, GABAA, H1, H2, H3, H4, M1, M2, M5, δ-opioid receptor (DOR), κ-opioid receptor (KOR), μ-opioid receptor (MOR), σ1, σ2, DAT, NET, SERT. Ki values […]
(§5) Compound # PDSP # Receptor LogKi Ki (nM)

α2A = target: T3, α2A (Homo sapiens, UniProt P08913); assay: PDSP binding assay, α2A
T3 construct: NIMH Psychoactive Drug Screening Program (PDSP)
T3 sequence (P08913 1-465): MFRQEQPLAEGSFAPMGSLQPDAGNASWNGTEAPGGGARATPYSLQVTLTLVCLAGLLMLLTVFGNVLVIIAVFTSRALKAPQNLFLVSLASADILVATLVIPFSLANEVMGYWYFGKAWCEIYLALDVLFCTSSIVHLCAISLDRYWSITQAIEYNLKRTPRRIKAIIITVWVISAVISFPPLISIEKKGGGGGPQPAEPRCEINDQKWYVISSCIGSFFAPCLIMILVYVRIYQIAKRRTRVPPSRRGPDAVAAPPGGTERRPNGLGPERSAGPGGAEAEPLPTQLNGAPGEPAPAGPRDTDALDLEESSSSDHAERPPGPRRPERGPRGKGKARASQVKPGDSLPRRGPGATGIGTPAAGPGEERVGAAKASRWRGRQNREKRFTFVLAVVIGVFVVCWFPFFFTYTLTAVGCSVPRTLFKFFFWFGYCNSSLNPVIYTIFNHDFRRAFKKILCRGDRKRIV
From the text: as §1, §2, §3, §4, §5

D5 = target: T4, D5 (Homo sapiens, UniProt P21918); assay: PDSP binding assay, D5
T4 construct: NIMH Psychoactive Drug Screening Program (PDSP)
T4 sequence (P21918 whole entry): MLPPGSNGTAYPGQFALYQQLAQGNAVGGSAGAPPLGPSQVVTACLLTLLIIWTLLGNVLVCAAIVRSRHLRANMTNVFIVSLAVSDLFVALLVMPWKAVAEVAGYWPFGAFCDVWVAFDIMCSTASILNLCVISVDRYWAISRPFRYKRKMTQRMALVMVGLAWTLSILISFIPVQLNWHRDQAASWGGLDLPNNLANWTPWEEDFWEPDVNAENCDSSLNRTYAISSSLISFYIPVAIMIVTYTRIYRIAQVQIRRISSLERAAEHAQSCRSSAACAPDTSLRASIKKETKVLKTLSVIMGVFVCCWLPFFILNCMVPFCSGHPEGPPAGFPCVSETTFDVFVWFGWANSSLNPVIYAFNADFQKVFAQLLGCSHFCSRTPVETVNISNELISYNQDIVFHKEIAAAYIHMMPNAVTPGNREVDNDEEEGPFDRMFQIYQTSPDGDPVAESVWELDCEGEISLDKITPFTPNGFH
From the text: as §1, §2, §3, §4, §5

H1 = target: T5, H1 (Homo sapiens, UniProt P35367); assay: PDSP binding assay, H1; settings: Table S2, single determinations; read-out: Ki (nM), H1
T5 construct: NIMH Psychoactive Drug Screening Program (PDSP)
T5 sequence (P35367 whole entry): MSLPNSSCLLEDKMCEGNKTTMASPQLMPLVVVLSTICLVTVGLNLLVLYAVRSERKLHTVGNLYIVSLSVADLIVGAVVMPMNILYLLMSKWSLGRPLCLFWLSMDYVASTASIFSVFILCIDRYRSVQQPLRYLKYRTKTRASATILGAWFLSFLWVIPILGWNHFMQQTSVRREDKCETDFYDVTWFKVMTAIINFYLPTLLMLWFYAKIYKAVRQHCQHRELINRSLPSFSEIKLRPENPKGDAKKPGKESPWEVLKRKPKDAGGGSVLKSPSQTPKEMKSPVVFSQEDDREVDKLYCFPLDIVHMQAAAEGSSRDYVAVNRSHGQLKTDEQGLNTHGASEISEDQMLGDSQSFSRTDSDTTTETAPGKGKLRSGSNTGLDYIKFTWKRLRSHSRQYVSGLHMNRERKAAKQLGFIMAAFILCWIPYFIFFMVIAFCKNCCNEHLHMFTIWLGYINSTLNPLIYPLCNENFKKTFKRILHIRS
From the text: as §1, §2, §3, §4, §5

κ-opioid receptor (KOR) = target: T6, κ-opioid receptor (KOR) (Homo sapiens, UniProt P41145); assay: PDSP binding assay, κ-opioid
T6 construct: NIMH Psychoactive Drug Screening Program (PDSP)
T6 sequence (P41145 whole entry): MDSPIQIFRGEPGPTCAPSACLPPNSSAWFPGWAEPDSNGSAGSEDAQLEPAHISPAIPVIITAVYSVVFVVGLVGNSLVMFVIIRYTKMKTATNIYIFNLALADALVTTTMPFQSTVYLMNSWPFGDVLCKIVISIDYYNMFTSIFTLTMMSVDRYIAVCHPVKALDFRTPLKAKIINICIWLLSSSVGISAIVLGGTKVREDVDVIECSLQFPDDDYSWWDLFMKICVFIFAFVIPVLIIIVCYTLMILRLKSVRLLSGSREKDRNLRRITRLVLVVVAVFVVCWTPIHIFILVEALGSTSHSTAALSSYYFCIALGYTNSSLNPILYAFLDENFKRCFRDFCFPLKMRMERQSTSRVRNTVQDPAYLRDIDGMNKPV
From the text: as §1, §2, §3, §4, §5

5-HT1A = target: T7, 5-HT1A (Homo sapiens, UniProt P08908); assay: PDSP binding assay, 5-HT1A; settings: Table S2, single determination
T7 construct: NIMH Psychoactive Drug Screening Program (PDSP)
T7 sequence (P08908 whole entry): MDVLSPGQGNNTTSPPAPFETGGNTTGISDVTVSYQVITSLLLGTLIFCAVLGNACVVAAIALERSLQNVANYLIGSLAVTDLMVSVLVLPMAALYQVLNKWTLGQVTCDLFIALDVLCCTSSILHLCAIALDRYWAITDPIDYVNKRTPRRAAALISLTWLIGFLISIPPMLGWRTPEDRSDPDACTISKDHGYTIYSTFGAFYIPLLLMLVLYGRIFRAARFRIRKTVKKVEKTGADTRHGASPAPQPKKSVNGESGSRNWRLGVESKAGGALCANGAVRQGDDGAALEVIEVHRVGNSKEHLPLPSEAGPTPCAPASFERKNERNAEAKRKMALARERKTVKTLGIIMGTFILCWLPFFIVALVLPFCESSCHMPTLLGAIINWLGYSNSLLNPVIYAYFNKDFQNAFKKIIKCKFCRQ
From the text: as §1, §2, §3, §4, §5

D2 = target: T8, D2 (Homo sapiens, UniProt P14416); assay: PDSP binding assay, D2; settings: Table S2, single determination
T8 construct: NIMH Psychoactive Drug Screening Program (PDSP)
T8 sequence (P14416 whole entry): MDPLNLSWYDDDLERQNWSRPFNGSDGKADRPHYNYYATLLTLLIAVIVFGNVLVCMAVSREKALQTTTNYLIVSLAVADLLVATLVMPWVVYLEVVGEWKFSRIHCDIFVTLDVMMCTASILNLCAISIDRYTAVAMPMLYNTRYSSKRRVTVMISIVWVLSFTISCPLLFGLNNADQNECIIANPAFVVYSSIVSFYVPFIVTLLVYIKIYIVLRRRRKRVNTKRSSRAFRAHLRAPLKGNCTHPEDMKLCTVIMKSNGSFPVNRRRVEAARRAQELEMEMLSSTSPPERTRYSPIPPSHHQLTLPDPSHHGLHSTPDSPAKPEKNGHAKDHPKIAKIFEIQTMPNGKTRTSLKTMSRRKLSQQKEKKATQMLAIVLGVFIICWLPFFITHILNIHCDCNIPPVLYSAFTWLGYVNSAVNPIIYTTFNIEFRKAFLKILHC
From the text: as §1, §2, §3, §4, §5

HeLa cells = assay: MTT cell viability assay, HeLa cells; format: cell-based, human; settings: for % survival: 12 h, MTT
Description: (§6) The 1321N1 astrocytoma (hP2Y6R-overexpressing) and HeLa (non-transfected) cell lines were cultured in Dulbecco’s modified Eagle’s medium (DMEM, HyClone, Logan, UT, USA) supplemented with 5% heat-inactivated fetal bovine serum (FBS, HyClone, UT, USA), 100 U/mL penicillin, and 100 µg/mL streptomycin in 5% CO2 at 37 °C. The cell viability was determined using an MTT kit (Sigma, St. Louis, MO, USA) according to the manufacturer’s instructions. Briefly, 1 × 10^4 cells were seeded in triplicate in 96-well plates. The hP2Y6R-astrocytoma and HeLa cells were treated with a P2Y6R agonist and antagonists at a range of concentrations and incubated for 12 h. The cell viability was measured at 490 nm using a SpectraMax-M5 Spectrometer (Molecular Devices, San Jose, CA, USA).

[2] = test system: hP2Y6R-1321N1 human astrocytoma cells; assay: MTT cell viability assay, hP2Y6R-1321N1 astrocytoma cells; format: cell-based; settings: for % survival: P2Y6R-astrocytoma, 12 h, MTT
Description: as §6

`CC(C)(C)OC(=O)NCCCCCCCC#Cc1ccc2c(c1)C=C([N+](=O)[O-])C(C(F)(F)F)O2` (stereo not drawn) [Compound 30, tert-Butyl (9-(3-nitro-2-(trifluoromethyl)-2H-chromen-6-yl)non-8-yn-1-yl)carbamate] was tested, and the IC50 (hP2Y6R; UDP 100 nM, 3–4 independent triplicate determinations, read-out: IC50, hP2Y6R (Mean ± SEM)) was 162 ± 13 nM, the “fold greater affinity than the corresponding pivaloyl derivative” value (hP2Y6R; hP2Y6R IC50 ratio) was 107 fold and the IC50 (hP2Y14R; CHO-hP2Y14, competitive binding, flow cytometer) was 21400 ± 5800 nM. The “fold selective compared to the hP2Y14R” value (hP2Y14R; hP2Y6R vs hP2Y14R) was 132 fold, the “off-target interactions at 45 target sites” value [1] was “seven off-target interactions” and the Ki (α2A; PDSP, mean, n = 2, read-out: Ki, α2A) was 86 nM. For the same molecule, the Ki (α2A; Table S2, single determinations, read-out: Ki (nM), Alpha2A) was 80.2 nM and 90.7 nM, the Ki (D5; PDSP, mean, n = 2, read-out: Ki, D5) was 780 nM and the Ki (D5; Table S2, single determinations, read-out: Ki (nM), D5) was 643 nM and 911 nM. The Ki (H1) was 630 nM and 366 nM, the Ki (κ-opioid receptor (KOR); PDSP, mean, n = 2, read-out: Ki, κ-opioid) was 2200 nM and the Ki (κ-opioid receptor (KOR); Table S2, single determination, read-out: Ki (nM), KOR) was 1400 nM. The Ki (5-HT1A) was > 10000 nM, the Ki (D2) was > 10000 nM and the “% survival” value (HeLa cells; 0.05 µM) was 94%. For the same molecule, the “% survival” value (HeLa cells; 0.1 µM) was 94%, the “% survival” value (HeLa cells; 0.5 µM) was 87% and the “% survival” value (HeLa cells; 1 µM) was 71%. The inhibition of viability (HeLa cells; at 1 µM, 12 h exposure) was 29%, the “% survival” value ([2]; 0.05 µM) was 98% and the “% survival” value ([2]; 0.1 µM) was 98%. For the same molecule, the “% survival” value ([2]; 0.5 µM) was 83%, the “% survival” value ([2]; 1 µM) was 77% and the inhibition of viability ([2]; hP2Y6R-1321N1 cells, at 1 µM, 12 h exposure) was 23%.
